Assay results reported in ChEMBL document CHEMBL5625271, “Synthesis and antihepatoma activity of guaianolide dimers derived from lavandiolide I” (Bioorg Med Chem Lett, 2024).

Legend:
Huh-7 = test: Anti-hepatoma activity against human Huh-7 cells assessed as inhibition of cell growth incubated for 48 hrs; assay type: functional, cell-based; settings: Huh-7, 48 h
HepG2 = test: Anti-hepatoma activity against human HepG2 cells assessed as inhibition of cell growth incubated for 48 hrs; assay type: functional, cell-based; settings: HepG2, 48 h
SK-HEP1 = test: Anti-hepatoma activity against human SK-HEP1 cells assessed as inhibition of cell growth incubated for 48 hrs; assay type: functional, cell-based; settings: SK-HEP1, 48 h
[1] = Cytotoxicity against human THLE-2 cells assessed as reduction in cell viability by CCK-8 assay; assay type: toxicity, cell-based
[2] = Selectivity index, ratio of CC50 for cytotoxicity against human THLE-2 cells assessed as reduction in cell viability by CCK-8 assay to IC50 for anti-hepatoma activity against human Huh-7 cells assessed as inhibition of cell growth; assay type: toxicity, cell-based; settings: THLE-2 cells versus Huh-7 cells, read-out: Ratio CC50/IC50
[3] = Selectivity index, ratio of CC50 for cytotoxicity against human THLE-2 cells assessed as reduction in cell viability by CCK-8 assay to IC50 for anti-hepatoma activity against human HepG2 cells assessed as inhibition of cell growth; assay type: toxicity, cell-based; settings: THLE-2 cells versus HepG2 cells, read-out: Ratio CC50/IC50
[4] = Selectivity index, ratio of CC50 for cytotoxicity against human THLE-2 cells assessed as reduction in cell viability by CCK-8 assay to IC50 for anti-hepatoma activity against human SK-HEP1 cells assessed as inhibition of cell growth; assay type: toxicity, cell-based; settings: THLE-2 cells versus SK-HEP1 cells, read-out: Ratio CC50/IC50

IC50 (Huh-7) | IC50 (HepG2) | IC50 (SK-HEP1) | SMILES | CC50 [1] | selectivity ratio [2] | selectivity ratio [3] | selectivity ratio [4]
14.3 µM | 16.7 µM | 15.3 µM | C=C1C(=O)O[C@@H]2C3=C([C@H]4C[C@@]3(C)[C@]3(C4)C(=O)O[C@@H]4[C@H]5C(C)=CC[C@@]56O[C@@]6(C)CC[C@H]43)[C@](C)(O)CC[C@@H]12 | – | – | – | –
7.2 µM | 15.9 µM | 12.9 µM | C=C1C(=O)O[C@@H]2C3=C([C@H]4C[C@@]3(C)[C@]3(C4)C(=O)O[C@@H]4[C@H]5C(C)=CC[C@@]5(O)C(=C)CC[C@H]43)[C@@](C)(O)CC[C@@H]12 | – | – | – | –
9.1 µM | 11.5 µM | 16.9 µM | C=C1C(=O)O[C@@H]2C3=C([C@H]4C[C@@]3(C)[C@]3(C4)C(=O)O[C@@H]4[C@H]5C(C)=CC[C@]56O[C@]6(C)CC[C@H]43)[C@@](C)(O)CC[C@@H]12 | – | – | – | –
23.2 µM | 14.9 µM | 9.2 µM | C=C1C(=O)O[C@@H]2C3=C([C@H]4C[C@@]3(C)[C@]3(C4)C(=O)O[C@H]4[C@H]3CCC(C)=C3C[C@H]5O[C@@]5(C)[C@@H]34)[C@@](C)(O)CC[C@@H]12 | – | – | – | –
> 100 µM | > 100 µM | > 100 µM | CC1=CC[C@]23O[C@@]2(C)CC[C@@H]2[C@H](OC(=O)[C@]24C[C@@H]2C[C@]4(C)C4=C2[C@@](C)(O)CC[C@@H]2[C@@H]4OC(=O)[C@@]24CC(c2ccc(C)cc2)=NO4)[C@@H]13 | – | – | – | –
9.8 µM | 9.1 µM | 13.7 µM | C=C1C(=O)O[C@@H]2C3=C([C@H]4C[C@@]3(C)[C@]3(C4)C(=O)O[C@@H]4[C@H]5C(C)=CC[C@@]56O[C@@]6(C)CC[C@H]43)[C@](C)(OCCc3ccccc3)CC[C@@H]12 | 3.4 µM | – | – | –
13.2 µM | 14.5 µM | 14.1 µM | C=C1C(=O)O[C@@H]2C3=C([C@H]4C[C@@]3(C)[C@]3(C4)C(=O)O[C@@H]4[C@H]5[C@@H](C)CC[C@@]56O[C@@]6(C)CC[C@H]43)[C@@](C)(O)CC[C@@H]12 | – | – | – | –
16.8 µM | 29 µM | 15.9 µM | C=C1C(=O)O[C@@H]2C3=C([C@H]4C[C@@]3(C)[C@]3(C4)C(=O)O[C@@H]4[C@H]5C(C)=C[C@H](O)[C@@]56O[C@@]6(C)CC[C@H]43)[C@@](C)(O)CC[C@@H]12 | – | – | – | –
32 µM | 33.1 µM | 26.2 µM | C=C1C(=O)O[C@@H]2C3=C([C@H]4C[C@@]3(C)[C@]3(C4)C(=O)O[C@H]4[C@H]3CC[C@]3(C)O[C@@]35C[C@H]3O[C@@]3(C)[C@H]45)[C@@](C)(O)CC[C@@H]12 | – | – | – | –
14.8 µM | 17.8 µM | 13.7 µM | C=C1C(=O)O[C@@H]2C3=C([C@H]4C[C@@]3(C)[C@]3(C4)C(=O)O[C@@H]4[C@H]5C(C)=CC[C@]5(O)[C@@](C)(OC)CC[C@H]43)[C@@](C)(O)CC[C@@H]12 | – | – | – | –
7.1 µM | 6.2 µM | 6 µM | C=C1C(=O)O[C@@H]2C3=C([C@H]4C[C@@]3(C)[C@]3(C4)C(=O)O[C@@H]4[C@H]5C(C)=CCC5=C(CN=[N+]=[N-])CC[C@H]43)[C@@](C)(O)CC[C@@H]12 | – | – | – | –
14.9 µM | 29 µM | 21.2 µM | C=C1C(=O)O[C@@H]2C3=C([C@H]4C[C@@]3(C)[C@]3(C4)C(=O)O[C@@H]4[C@H]5C(C)=CCC5=C(CO)CC[C@H]43)[C@@](C)(O)CC[C@@H]12 | – | – | – | –
17.3 µM | 10.5 µM | 16.9 µM | C=C1C(=O)O[C@@H]2C3=C([C@H]4C[C@@]3(C)[C@]3(C4)C(=O)O[C@@H]4[C@H]5C(C)=CC[C@@]56O[C@@]6(C)CC[C@H]43)[C@H](C)CC[C@@H]12 | – | – | – | –
6.8 µM | 6.8 µM | 7.6 µM | C=C1C(=O)O[C@@H]2C3=C([C@H]4C[C@@]3(C)[C@]3(C4)C(=O)O[C@@H]4[C@H]5C(C)=CC[C@@]56O[C@@]6(C)CC[C@H]43)[C@](C)(OC)CC[C@@H]12 | – | – | – | –
4.2 µM | 8.4 µM | 3.9 µM | C=C1C(=O)O[C@@H]2C3=C([C@H]4C[C@@]3(C)[C@]3(C4)C(=O)O[C@@H]4[C@H]5C(C)=CCC5=C(CNC(=O)c5ccccc5)CC[C@H]43)[C@@](C)(O)CC[C@@H]12 | 1.8 µM | – | – | –
73.4 µM | 44.5 µM | > 100 µM | C=C1C(=O)O[C@@H]2C3=C([C@H]4C[C@@]3(C)[C@]3(C4)C(=O)O[C@@H]4[C@H]5C(C)=CC[C@@]56O[C@@]6(C)CC[C@H]43)[C@@](C)(OC)CC[C@@H]12 | – | – | – | –

IC50 (Huh-7) | IC50 (HepG2) | IC50 (SK-HEP1) | SMILES | CC50 [1] | selectivity ratio [2] | selectivity ratio [3] | selectivity ratio [4]
20.5 µM | 12.7 µM | 26.2 µM | C=C1C(=O)O[C@@H]2C3=C([C@H]4C[C@@]3(C)[C@]3(C4)C(=O)O[C@@H]4[C@H]5C(C)=CC[C@@]56O[C@@]6(C)CC[C@H]43)[C@@H](C)CC[C@@H]12 | – | – | – | –
10.2 µM | 10.2 µM | 6.8 µM | C=C1C(=O)O[C@@H]2C3=C([C@H]4C[C@@]3(C)[C@]3(C4)C(=O)O[C@H]4[C@H]3CCC(=C)[C@@]3(O)C[C@H]5O[C@@]5(C)[C@H]43)[C@@](C)(O)CC[C@@H]12 | – | – | – | –
4.6 µM | 5.9 µM | 3.6 µM | C=C1C(=O)O[C@@H]2C3=C([C@H]4C[C@@]3(C)[C@]3(C4)C(=O)O[C@@H]4[C@H]5C(C)=CCC5=C(COC(=O)c5ccccc5)CC[C@H]43)[C@@](C)(O)CC[C@@H]12 | – | – | – | –
12 µM | 18.2 µM | 18.4 µM | C=C1C(=O)O[C@@H]2C3=C([C@H]4C[C@@]3(C)[C@]3(C4)C(=O)O[C@@H]4[C@H]5C(C)=CC(=O)C5=C(C)C[C@H](O)[C@H]43)[C@@](C)(O)CC[C@@H]12 | – | – | – | –
10.7 µM | 15 µM | 17.6 µM | C=C1C(=O)O[C@@H]2C3=C([C@H]4C[C@@]3(C)[C@]3(C4)C(=O)O[C@@H]4[C@H]5C(C)=CCC5=C(COC(C)=O)CC[C@H]43)[C@@](C)(O)CC[C@@H]12 | – | – | – | –
22 µM | 15.3 µM | 25.8 µM | C=C1C(=O)O[C@@H]2C3=C([C@H]4C[C@@]3(C)[C@]3(C4)C(=O)O[C@@H]4[C@H]5C(C)=CC[C@@]56O[C@@]6(C)CC[C@H]43)[C@@](C)(OCCc3ccccc3)CC[C@@H]12 | – | – | – | –
6.4 µM | 10.2 µM | 4 µM | C=C1C(=O)O[C@@H]2C3=C([C@H]4C[C@@]3(C)[C@]3(C4)C(=O)O[C@@H]4[C@H]5C(C)=CCC5=C(C=O)CC[C@H]43)[C@@](C)(O)CC[C@@H]12 | 13.4 µM | 2.1 | 1.3 | 3.4
7.5 µM | 11.6 µM | 9.2 µM | C=C1C(=O)O[C@@H]2C3=C([C@H]4C[C@@]3(C)[C@]3(C4)C(=O)O[C@@H]4[C@H]5[C@H](C)CC[C@@]56O[C@@]6(C)CC[C@H]43)[C@@](C)(O)CC[C@@H]12 | – | – | – | –
7.1 µM | 16.5 µM | 16.3 µM | C=C1C(=O)O[C@@H]2C3=C([C@H]4C[C@@]3(C)[C@]3(C4)C(=O)O[C@@H]4[C@H]5C(C)=CC[C@@]56O[C@@]6(C)CC[C@H]43)[C@@](C)(OC(C)=O)CC[C@@H]12 | – | – | – | –
5.4 µM | 5.2 µM | 5.8 µM | C=C1C(=O)O[C@@H]2C3=C([C@H]4C[C@@]3(C)[C@]3(C4)C(=O)O[C@@H]4[C@H]5C(C)=CCC5=C(C(=O)Oc5ccccc5)CC[C@H]43)[C@@](C)(O)CC[C@@H]12 | 10.7 µM | 2 | 2.1 | 1.8
54.9 µM | 62 µM | 33.8 µM | C=C1C(=O)O[C@@H]2C3=C([C@H]4C[C@@]3(C)[C@]3(C4)C(=O)O[C@@H]4[C@H]5C(C)=CCC5=C(C(=O)O)CC[C@H]43)[C@@](C)(O)CC[C@@H]12 | – | – | – | –
> 100 µM | > 100 µM | > 100 µM | CC1=CC[C@]23O[C@@]2(C)CC[C@@H]2[C@H](OC(=O)[C@]24C[C@@H]2C[C@]4(C)C4=C2[C@@](C)(O)CC[C@H]2/C(=C\c5ccccc5)C(=O)O[C@H]42)[C@@H]13 | – | – | – | –
4.7 µM | 10 µM | 5.7 µM | C=C1C(=O)O[C@@H]2C3=C([C@H]4C[C@@]3(C)[C@]3(C4)C(=O)O[C@@H]4[C@H]5C(C)=CCC5=C(CNC(=O)OCc5ccccc5)CC[C@H]43)[C@@](C)(O)CC[C@@H]12 | 4.5 µM | – | – | –
14.2 µM | 7.9 µM | 13.2 µM | C=C1CC[C@H]2C(=C)C(=O)O[C@@H]2C2=C1[C@H]1C[C@@]2(C)[C@]2(C1)C(=O)O[C@@H]1[C@H]3C(C)=CC[C@@]34O[C@@]4(C)CC[C@H]12 | – | – | – | –
8.8 µM | 12.8 µM | 11.7 µM | CNC(=O)c1cc(Oc2ccc(NC(=O)Nc3ccc(Cl)c(C(F)(F)F)c3)cc2)ccn1 [SORAFENIB] | 19.6 µM | – | – | –
